Active and inactive are the calls of the source.
Legend:
HeLa = experiment: HeLa cell cytotoxicity, dose response, cytotoxicity control, ATP luminescence, cherry-pick samples (AID 687004); type: functional, cell-based; conditions: Homo sapiens
[1] = target: Tyrosine-protein phosphatase non-receptor type 11 (Homo sapiens, UniProt Q06124); experiment: SHP2 phosphatase inhibition, dose response, selectivity assay for STEP inhibitor project, biochemical (AID 602367); type: functional; conditions: read-out: IC50_Mean
[2] = target: Tyrosine-protein phosphatase non-receptor type 5 (Homo sapiens, UniProt P54829); experiment: STEP phosphatase inhibitors, confirmation, biochemical, fluorescence intensity, uHTS hits (AID 602372); type: functional; conditions: read-out: IC50_Mean
[3] = target: Dual specificity protein phosphatase 3 (Homo sapiens, UniProt P51452); experiment: VHR phosphatase inhibition, dose response, selectivity assay for STEP inhibitor project, biochemical (AID 602374); type: functional; conditions: read-out: IC50_Mean
[4] = target: T1, Tyrosine-protein phosphatase non-receptor type 22 (Homo sapiens, UniProt Q9Y2R2); experiment: PTPN22 phosphatase inhibition, dose response, selectivity assay for STEP inhibitor project, biochemical (AID 624241); type: functional
T1 sequence (Q9Y2R2 whole entry): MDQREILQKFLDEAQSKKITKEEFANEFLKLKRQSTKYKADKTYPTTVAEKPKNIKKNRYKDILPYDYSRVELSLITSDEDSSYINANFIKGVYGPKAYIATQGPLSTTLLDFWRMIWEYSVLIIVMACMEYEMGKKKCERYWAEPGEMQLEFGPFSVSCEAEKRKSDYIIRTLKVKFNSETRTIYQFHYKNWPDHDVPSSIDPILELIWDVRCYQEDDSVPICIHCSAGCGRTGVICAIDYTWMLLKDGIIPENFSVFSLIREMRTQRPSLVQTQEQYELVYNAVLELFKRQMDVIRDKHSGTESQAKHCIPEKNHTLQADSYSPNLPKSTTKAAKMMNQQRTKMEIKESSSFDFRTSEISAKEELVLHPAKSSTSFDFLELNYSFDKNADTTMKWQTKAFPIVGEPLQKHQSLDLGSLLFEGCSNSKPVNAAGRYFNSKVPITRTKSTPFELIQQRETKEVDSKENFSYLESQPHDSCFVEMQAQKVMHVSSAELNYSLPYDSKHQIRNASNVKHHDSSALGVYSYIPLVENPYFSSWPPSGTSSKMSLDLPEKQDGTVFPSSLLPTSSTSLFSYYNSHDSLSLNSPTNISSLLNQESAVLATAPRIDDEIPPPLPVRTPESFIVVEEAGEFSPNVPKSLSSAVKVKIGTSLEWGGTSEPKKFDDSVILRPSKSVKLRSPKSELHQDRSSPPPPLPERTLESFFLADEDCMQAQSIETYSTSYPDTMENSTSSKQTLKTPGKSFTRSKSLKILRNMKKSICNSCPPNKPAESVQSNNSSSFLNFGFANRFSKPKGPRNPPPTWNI

[5] = target: Histone-lysine N-methyltransferase NSD2 (Homo sapiens, UniProt O96028); type: biochemical
[6] = HEp-2 cell cytotoxicity, dose response, cytotoxicity control for RSV inhibitor project, HTS (AID 2410); type: functional; conditions: human respiratory syncytial virus
[7] = inhibitors of intracellular T. cruzi replication, confirmation, NIH3T3 host cells, beta-gal luminescence (AID 2044); type: functional, cell-based;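 also: intracellular parasites grown in NIH/3T3 mouse fibroblasts as host cells; luminescent beta-galactosidase reporter signal from transgenic T. cruzi replicating inside host cells; inhibitors lower the luminescence signal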
[8] = cytotoxicity toward NIH3T3 fibroblasts, dose response, counter-screen, cell-based, ATP luminescence, mouse fibroblasts (AID 2010); type: functional;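 also: cells exposed to compound for about 90 hours before reading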
[9] = target: Glucose-6-phosphate 1-dehydrogenase (Homo sapiens, UniProt P11413); experiment: human G6PD enzyme inhibitors, dose response, selectivity assay for P. falciparum G6PD inhibitor project, biochemical, fluorescence (AID 504792); type: functional
cells [10] = type: functional, cell-based
cells [11] = type: functional, cell-based; remark: listed apart in the source
[12] = target: Tyrosyl-DNA phosphodiesterase 2 (Homo sapiens, UniProt O95551); experiment: human TDP2 enzyme inhibitors, dose response, biochemical, epi absorbance, IC50 (AID 743297)
[13] = HeLa cell cytotoxicity, dose response, cytotoxicity control, 24 h, plate reader, dry powder (AID 686928); type: functional, cell-based
[14] = Shn3 3'UTR reporter inhibitors, dose response, cell-based, Clone20 osteoblasts, firefly luciferase, cherry-picked (AID 624132); type: functional;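 also: firefly luciferase luminescence from reporter carrying the Shn3 3'UTR in osteoblasts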
[15] = HepG2 cell cytotoxicity, dose response, cytotoxicity control for Shn3 inhibitor project, CellTiter-Glo, cherry-picked (AID 624134); type: functional, cell-based
[16] = control 3'UTR Renilla luciferase suppression, dose response, counter-screen for Shn3 inhibitor project, cell-based, Clone20-Shn3RL, cherry-picked (AID 624133); type: functional
[17] = inhibitors of HIV Env-driven cell fusion, dose response, cherry-pick (AID 652057); type: functional, cell-based
[18] = CEM21 lymphoblast cell cytotoxicity, dose response, cytotoxicity control for viral fusion inhibitor project, CellTiter-Glo luminescence, cherry-picked (AID 652042); type: functional, cell-based;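 also: potency for signal decrease meaning cytotoxicity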
[19] = off-target signal loss in HeLa-CEM21 co-culture – HeLa F-luc CTL cells, cherry-picked, counter-screen for HIV-1 Env fusion inhibitor project, dose response (AID 652040); type: functional, cell-based;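 also: potency for signal decrease marking cytotoxic or nonspecific inhibition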
[20] = inhibitors of clade B AD8 Env fusion, dose response, cell-based, cherry-pick (AID 652062); type: functional;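 also: luciferase signal from cell-cell fusion driven by HIV-1 clade B AD8 Env; potency is for inhibitors of fusion seen as a drop in luminescence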
Caspase-6 = target: T2, Caspase-6 (Homo sapiens, UniProt P55212); experiment: human caspase-6 inhibitors, dose response, biochemical, VEID-R110 fluorescence, cherry-pick (AID 720632)
T2 sequence (P55212 whole entry): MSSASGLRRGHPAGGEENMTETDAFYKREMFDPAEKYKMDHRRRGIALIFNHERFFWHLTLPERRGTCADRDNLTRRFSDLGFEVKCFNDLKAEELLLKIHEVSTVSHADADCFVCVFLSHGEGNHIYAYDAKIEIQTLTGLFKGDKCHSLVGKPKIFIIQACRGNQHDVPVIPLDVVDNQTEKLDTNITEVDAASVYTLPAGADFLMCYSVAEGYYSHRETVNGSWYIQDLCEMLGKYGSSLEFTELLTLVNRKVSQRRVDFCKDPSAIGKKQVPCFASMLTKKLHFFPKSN

Caspase-7 = Caspase-7 (Homo sapiens, UniProt P55210); experiment: human caspase-7 inhibitors, dose response, selectivity assay for caspase-6 inhibitor project, biochemical, DEVD-R110 fluorescence, cherry-pick (AID 743295)
Caspase-8 = Caspase-8 (Homo sapiens, UniProt Q14790); experiment: caspase-8 inhibition counter-screen, dose response, selectivity assay for caspase-6 inhibitor project, biochemical, Z-IETD-R110 fluorescence, cherry-picked samples (AID 743294)
[21] = target: T3, Kappa-type opioid receptor (Homo sapiens, UniProt P41145); type: functional
Beta-galactosidase = Beta-galactosidase (Escherichia coli, UniProt Q8VNN2); type: functional
[22] = target: T3, Kappa-type opioid receptor; type: functional; remark: listed apart in the source
[23] = ADAM10 inhibitors, peptide cleavage, dose response, biochemical, QFRET (AID 743254);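 also: ADAM10 enzyme with the DM2 quenched FRET peptide as substrate; EDANS fluorescence gain as the protease cuts the substrate; inhibitor potency against ADAM10 proteolytic activity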
[24] = target: T4, Disintegrin and metalloproteinase domain-containing protein 17 (Homo sapiens, UniProt P78536); experiment: exosite inhibitors of ADAM17, dose response, biochemical (AID 743260)
[25] = target: T4, Disintegrin and metalloproteinase domain-containing protein 17; experiment: ADAM17 protease inhibitors, dose response, counter-screen for ADAM10 exosite inhibitor project, biochemical, quenched FRET substrate (AID 743253)
[26] = target: NAD-dependent protein deacylase sirtuin-5, mitochondrial (Homo sapiens, UniProt Q9NXA8); experiment: SIRT5 desuccinylase inhibitors, dose response, biochemical, fluorescence imaging, cherry-pick, set 5 (AID 720591);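 also: desuccinylation of succinyl peptide AMC substrate read as fluorescence after trypsin release; potency of inhibitors that lower fluorescence and may act on trypsin instead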
Estrogen receptor = target: T5, Estrogen receptor (Homo sapiens, UniProt P03372);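 also: potency for inhibiting coactivator peptide recruitment to the receptor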
T5 sequence (P03372 whole entry): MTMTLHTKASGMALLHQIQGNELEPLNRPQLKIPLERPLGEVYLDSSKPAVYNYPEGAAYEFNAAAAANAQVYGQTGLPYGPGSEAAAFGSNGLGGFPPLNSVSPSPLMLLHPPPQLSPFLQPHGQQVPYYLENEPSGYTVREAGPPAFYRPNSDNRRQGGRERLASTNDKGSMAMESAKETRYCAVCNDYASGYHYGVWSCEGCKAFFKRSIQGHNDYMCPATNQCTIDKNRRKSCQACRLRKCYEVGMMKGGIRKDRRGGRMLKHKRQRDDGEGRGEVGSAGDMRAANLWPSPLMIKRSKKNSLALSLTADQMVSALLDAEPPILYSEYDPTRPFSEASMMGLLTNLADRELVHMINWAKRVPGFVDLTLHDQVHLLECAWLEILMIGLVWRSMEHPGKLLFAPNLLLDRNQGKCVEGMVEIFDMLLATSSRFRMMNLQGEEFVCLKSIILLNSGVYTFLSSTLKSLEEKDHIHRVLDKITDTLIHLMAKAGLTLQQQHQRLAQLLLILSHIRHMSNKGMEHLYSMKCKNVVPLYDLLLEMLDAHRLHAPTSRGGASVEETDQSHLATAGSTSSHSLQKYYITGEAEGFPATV

[27] = ZM109 Env clade C HIV-1 fusion inhibitors, dose response, HeLa effector, CEM target cells, luciferase, cherry-pick (AID 652058); type: functional, cell-based
[28] = CEM21 cell cytotoxicity, dose response, cytotoxicity control, plate reader, dry powder (AID 687026); type: functional, cell-based

T4 sequence (P78536 whole entry, the tested form may be a part): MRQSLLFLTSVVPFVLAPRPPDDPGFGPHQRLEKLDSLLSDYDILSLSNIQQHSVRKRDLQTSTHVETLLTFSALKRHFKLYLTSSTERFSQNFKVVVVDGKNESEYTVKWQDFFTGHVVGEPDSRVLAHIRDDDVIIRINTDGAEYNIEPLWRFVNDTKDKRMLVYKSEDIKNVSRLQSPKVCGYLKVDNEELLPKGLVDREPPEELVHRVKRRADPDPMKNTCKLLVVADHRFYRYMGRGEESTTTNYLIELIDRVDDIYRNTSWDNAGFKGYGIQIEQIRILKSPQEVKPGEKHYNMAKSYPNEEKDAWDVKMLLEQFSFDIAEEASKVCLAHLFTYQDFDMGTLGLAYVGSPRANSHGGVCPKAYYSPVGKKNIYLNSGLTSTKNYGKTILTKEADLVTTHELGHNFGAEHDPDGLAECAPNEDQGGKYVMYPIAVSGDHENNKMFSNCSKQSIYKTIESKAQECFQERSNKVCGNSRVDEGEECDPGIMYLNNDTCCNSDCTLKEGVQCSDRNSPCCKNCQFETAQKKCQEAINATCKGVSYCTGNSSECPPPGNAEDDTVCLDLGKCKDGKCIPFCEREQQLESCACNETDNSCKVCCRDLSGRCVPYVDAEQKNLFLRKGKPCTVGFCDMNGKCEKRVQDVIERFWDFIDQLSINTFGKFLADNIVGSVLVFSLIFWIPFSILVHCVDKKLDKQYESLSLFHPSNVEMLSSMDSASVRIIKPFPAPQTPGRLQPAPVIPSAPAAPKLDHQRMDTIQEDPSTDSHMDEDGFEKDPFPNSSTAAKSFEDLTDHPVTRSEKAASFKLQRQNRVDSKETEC
T3 sequence (P41145 whole entry): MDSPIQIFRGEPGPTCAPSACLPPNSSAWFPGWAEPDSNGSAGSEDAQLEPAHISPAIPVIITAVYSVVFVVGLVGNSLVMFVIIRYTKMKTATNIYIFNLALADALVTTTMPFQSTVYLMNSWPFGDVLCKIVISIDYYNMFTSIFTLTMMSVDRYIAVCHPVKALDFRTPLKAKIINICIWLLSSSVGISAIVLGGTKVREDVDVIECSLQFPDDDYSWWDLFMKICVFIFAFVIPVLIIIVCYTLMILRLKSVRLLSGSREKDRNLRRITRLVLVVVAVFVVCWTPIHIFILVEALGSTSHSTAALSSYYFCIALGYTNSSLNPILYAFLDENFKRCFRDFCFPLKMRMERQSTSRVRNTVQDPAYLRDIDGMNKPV
Chain of Caspase-8 (Q14790 217-374 limits assumed): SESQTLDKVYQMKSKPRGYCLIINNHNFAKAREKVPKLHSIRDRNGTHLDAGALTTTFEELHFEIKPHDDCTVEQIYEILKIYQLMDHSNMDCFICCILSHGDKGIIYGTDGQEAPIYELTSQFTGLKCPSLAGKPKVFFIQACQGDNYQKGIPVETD
Chain of Caspase-8 (Q14790 385-479 limits assumed): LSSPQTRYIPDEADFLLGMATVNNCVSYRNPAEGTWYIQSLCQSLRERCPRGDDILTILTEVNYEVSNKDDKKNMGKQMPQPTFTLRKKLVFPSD
Chain of Glucose-6-phosphate 1-dehydrogenase (P11413 whole entry): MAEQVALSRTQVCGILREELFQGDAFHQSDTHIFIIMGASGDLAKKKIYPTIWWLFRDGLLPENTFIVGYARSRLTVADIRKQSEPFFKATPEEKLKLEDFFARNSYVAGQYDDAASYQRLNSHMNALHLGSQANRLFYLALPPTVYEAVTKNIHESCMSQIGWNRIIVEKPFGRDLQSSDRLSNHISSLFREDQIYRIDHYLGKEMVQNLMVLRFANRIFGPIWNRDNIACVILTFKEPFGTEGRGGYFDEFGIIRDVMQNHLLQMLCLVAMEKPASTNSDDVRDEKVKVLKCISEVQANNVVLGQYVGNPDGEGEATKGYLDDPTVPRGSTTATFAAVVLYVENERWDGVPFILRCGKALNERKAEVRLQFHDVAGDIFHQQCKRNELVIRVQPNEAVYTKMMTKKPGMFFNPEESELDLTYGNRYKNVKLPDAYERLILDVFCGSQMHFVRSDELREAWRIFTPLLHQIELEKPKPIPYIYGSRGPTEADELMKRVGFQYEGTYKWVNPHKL
Chain of Tyrosyl-DNA phosphodiesterase 2 (O95551 whole entry): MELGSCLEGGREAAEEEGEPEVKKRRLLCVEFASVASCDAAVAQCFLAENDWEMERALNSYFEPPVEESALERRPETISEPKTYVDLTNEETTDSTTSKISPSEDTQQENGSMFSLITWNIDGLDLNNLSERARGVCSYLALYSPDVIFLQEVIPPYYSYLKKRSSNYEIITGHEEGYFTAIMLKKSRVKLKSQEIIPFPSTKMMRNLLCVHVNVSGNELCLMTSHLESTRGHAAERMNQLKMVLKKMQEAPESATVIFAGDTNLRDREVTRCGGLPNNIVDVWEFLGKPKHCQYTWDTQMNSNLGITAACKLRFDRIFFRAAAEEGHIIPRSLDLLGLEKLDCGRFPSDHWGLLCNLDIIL
Chain of Tyrosine-protein phosphatase non-receptor type 11 (Q06124 whole entry): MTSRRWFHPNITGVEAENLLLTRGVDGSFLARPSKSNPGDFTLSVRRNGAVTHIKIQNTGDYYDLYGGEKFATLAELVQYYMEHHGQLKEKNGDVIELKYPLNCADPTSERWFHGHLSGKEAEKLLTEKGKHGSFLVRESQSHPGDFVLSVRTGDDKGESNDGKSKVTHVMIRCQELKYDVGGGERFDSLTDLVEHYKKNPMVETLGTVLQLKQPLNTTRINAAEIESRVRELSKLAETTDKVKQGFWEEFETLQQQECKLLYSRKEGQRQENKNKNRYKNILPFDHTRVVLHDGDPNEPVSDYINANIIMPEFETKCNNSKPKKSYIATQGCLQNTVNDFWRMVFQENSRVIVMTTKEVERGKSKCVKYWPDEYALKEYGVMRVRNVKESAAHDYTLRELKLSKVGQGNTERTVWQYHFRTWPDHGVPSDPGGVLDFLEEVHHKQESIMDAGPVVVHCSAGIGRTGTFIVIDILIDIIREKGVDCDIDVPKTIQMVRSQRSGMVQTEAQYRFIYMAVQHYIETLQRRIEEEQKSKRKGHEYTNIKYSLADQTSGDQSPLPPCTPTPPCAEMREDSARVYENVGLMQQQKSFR
Chain of Beta-galactosidase (Q8VNN2 whole entry): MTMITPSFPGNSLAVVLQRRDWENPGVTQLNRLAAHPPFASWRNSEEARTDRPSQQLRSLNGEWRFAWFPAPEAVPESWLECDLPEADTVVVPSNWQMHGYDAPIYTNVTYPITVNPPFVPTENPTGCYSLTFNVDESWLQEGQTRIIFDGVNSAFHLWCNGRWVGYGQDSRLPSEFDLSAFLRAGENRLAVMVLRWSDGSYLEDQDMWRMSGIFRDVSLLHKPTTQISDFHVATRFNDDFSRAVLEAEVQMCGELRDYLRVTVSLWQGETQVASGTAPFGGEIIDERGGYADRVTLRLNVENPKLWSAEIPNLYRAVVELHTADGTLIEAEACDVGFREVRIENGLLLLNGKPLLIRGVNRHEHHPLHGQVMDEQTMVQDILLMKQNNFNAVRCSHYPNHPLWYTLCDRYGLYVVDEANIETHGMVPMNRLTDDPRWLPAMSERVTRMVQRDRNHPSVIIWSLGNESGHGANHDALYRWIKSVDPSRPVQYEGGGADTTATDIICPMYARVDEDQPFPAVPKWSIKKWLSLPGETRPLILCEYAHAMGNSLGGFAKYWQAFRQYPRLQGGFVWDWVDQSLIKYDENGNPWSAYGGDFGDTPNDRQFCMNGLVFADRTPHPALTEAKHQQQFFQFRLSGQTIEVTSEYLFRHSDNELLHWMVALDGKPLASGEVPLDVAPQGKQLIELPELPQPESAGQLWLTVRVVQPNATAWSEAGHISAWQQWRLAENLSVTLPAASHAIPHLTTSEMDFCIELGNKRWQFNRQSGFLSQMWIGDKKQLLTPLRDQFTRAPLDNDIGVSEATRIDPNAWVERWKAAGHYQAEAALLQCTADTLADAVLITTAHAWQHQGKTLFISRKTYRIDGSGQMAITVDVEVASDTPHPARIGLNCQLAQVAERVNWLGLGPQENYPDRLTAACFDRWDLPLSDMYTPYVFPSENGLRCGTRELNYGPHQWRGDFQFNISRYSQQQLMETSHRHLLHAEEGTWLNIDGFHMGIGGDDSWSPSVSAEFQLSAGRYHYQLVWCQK
Chain of Caspase-7 (P55210 24-198 limits assumed): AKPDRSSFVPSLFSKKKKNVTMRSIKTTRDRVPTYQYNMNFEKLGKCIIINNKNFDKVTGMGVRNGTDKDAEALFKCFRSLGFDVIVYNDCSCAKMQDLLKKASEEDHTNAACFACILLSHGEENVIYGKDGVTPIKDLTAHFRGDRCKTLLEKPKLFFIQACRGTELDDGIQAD
Chain of Caspase-7 (P55210 207-303 limits assumed): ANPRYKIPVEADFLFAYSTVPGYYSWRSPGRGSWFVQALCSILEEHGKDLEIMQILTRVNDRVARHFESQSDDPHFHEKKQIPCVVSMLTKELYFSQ
Chain of NAD-dependent protein deacylase sirtuin-5, mitochondrial (Q9NXA8 whole entry): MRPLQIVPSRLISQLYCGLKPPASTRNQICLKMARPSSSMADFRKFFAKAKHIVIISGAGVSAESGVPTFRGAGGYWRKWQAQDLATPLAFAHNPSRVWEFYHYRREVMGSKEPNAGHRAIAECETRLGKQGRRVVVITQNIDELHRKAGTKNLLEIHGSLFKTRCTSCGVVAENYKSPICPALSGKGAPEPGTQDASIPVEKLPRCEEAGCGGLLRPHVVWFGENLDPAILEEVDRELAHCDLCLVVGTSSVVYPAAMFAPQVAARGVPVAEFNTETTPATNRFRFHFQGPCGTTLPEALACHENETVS
Chain of Dual specificity protein phosphatase 3 (P51452 whole entry): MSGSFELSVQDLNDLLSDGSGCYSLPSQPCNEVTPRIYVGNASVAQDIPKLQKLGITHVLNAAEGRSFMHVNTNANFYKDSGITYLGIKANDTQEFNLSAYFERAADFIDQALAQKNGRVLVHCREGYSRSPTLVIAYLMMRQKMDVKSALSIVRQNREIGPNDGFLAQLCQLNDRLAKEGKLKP

COC(=O)C1=C(C)N(Cc2ccc(F)cc2)C(=S)NC1c1ccc(Cl)cc1 (configuration not stated)
AC50 (HeLa): > 52 µM (inactive)

CC(=O)c1ccc(S(=O)(=O)Nc2cccc(-n3cnnn3)c2)cc1
IC50 [1]: 0.526 µM (active)
IC50 [2]: 17.4 µM (active)
IC50 [3]: 1.51 µM (active)
IC50 [4]: 11.4 µM (active)
AC50 [5]: 12.9 µM (active)

COc1ccc(Nc2cc(C)c3c(O)cccc3n2)cc1
CC50 [6]: 22.6 µM (active)
EC50 [7]: 1.94 µM (active)
EC50 [8]: > 60 µM (inconclusive)
IC50 [9]: 56.3 µM (inactive)
IC50 (cells [10]): > 29.9 µM (inactive)
EC50 (cells [11]): > 29.9 µM (inactive)

Cc1cccc2cc(C=C3C(=O)NC(=O)NC3=O)c(O)nc12
IC50 [12]: > 128 µM (inactive)

Cc1cc2nc3c(cc2cc1F)c(NC(=O)c1ccco1)nn3C
AC50 [13]: > 200 µM (inactive)

Nc1cc2c(cc1Br)nc(O)c1ccccc12
AC50 [14]: 5.46 µM (active)
AC50 [15]: 45.8 µM (active)
AC50 [16]: 22.9 µM (active)
AC50 [17]: 3.76 µM (active)
AC50 [18]: 9.39 µM (active)
AC50 [19]: 22.9 µM (active)
AC50 [20]: 21.6 µM (active)
AC50 (Caspase-6): 3.87 µM (active)
AC50 (Caspase-7): 2.6 µM (active)
AC50 (Caspase-8): 5.26 µM (active)

COCC/N=c1\scc(-c2cc(OC)ccc2OC)n1/N=C/c1c[nH]c2ccccc12
IC50 [21]: 9.65 µM (active)
EC50 (Beta-galactosidase): > 31.5 µM (inactive)
IC50 [22]: 3.86 µM
IC50 [23]: > 69.5 µM (inactive)
IC50 [24]: > 69.5 µM (inactive)
IC50 [25]: > 69.5 µM (inactive)

Nc1nc(CSc2ccc(Cl)cc2)nc(N2CCCCC2)n1
AC50 [26]: 26.5 µM (active)

COc1ccc(-c2nn(C)c(=O)c3ccccc23)cc1NC(=O)Cn1nc(C)c2ccccc2c1=O
IC50 (Estrogen receptor): > 50 µM (not active)
EC50 [7]: 1.46 µM (active)
EC50 [8]: > 60 µM (not active)
AC50 [17]: 4.07 µM (active)
AC50 [27]: 6.21 µM (active)
AC50 [28]: > 70 µM (inactive)

From ChEMBL document CHEMBL1201862, “PubChem BioAssay data set” (2004)
